Results as given in article PMC8824275, “Gastrointestinal Stability and Cytotoxicity of Bacteriocins From Gram-Positive and Gram-Negative Bacteria: A Comparative in vitro Study” (Frontiers in Microbiology, 2022).
Values after ≈ are worked out from the molar mass of the structure shown. Read-outs that look alike come from different tables or passages of the source. Bridge positions count the residues as written; N and C are the ends. Square brackets hold non-standard residues; d marks the D form. Ends that are not written are not given here. Peptide text beside a SMILES is read from it. Abu = CC[C@H](N)C(=O)O; Dhb = C/C=C(\N)C(=O)O; Dha = C=C(N)C(=O)O

Legend:
HepG2 cells = conditions: ref Paiva et al., 2012; cited from earlier work
Description: (§1) To the best of our knowledge, this is the first study that evaluates the cytotoxicity of several bacteriocins with different structures, mechanisms of actions and spectra of inhibitory activity.

MCF-7 cells = conditions: ref Paiva et al., 2012; cited from earlier work
Description: as §1

Vero cells = conditions: cited from earlier work
Description: as §1

sheep erythrocytes = conditions: sheep blood cells, 33.75 μM (113 μg/mL); ref Paiva et al., 2012; cited from earlier work
Experimental: (§2) Hemolytic activity is used for initial toxicity assessment and estimation of therapeutic index. Nisin remains to be the most studied bacteriocin, while there are very few data available for the other bacteriocins. […] Hemolytic activity of nisin A (Nisaplin®) at 3.35 μg/mL concentration was reported to be 6% in human red blood cells. In another study by [Maher and McClean (2006)], hemolytic activity exerted by 230 μM (771 μg/mL) nisin A (Nutrition 21) was shown ...

Caco-2 = conditions: MTT assay, ref Maher and McClean, 2006; cited from earlier work
Description: as §1

HT29 (epithelial cells) = conditions: MTT assay, ref Maher and McClean, 2006; cited from earlier work
Description: as §1

rat erythrocytes = assay: Hemolytic activity; format: cell-based; conditions: 0.4 to 400 μg/mL, 45 min, 37°C
Experimental: The experiment was performed after prior approval from the local ethics committee by TransBIOTech laboratory. Hemolytic potential of bacteriocins was evaluated according to [FDA (2005)]. Rat blood was collected into a heparinized tube and added in a 1:1 volume (100 μL) to serially diluted compounds (in 100 μL PBS), in a conical 96-well plate. 10% Triton X-100 and PBS were used as a positive and negative controls, respectively. The plates were sealed and incubated for 45 min at 37°C prior to centrifugation at 2,000 g for 10 min to pellet red blood cells. The supernatant was then transferred into clear 96-well plates and the absorbance was read at 540 nm (hemoglobin). The percentage of hemolysis was calculated as follow, with RBC standing for red blood cells:
%Hemolysis=AbsorbanceofRBCtreatedwithbacteriocins-AbsorbanceofRBCtreatedwithPBS/AbsorbanceofRBCtreatedwithTritonX100-AbsorbanceofRBCtreatedwithPBS

[1] = cited from earlier work
Description: There are limited number of studies regarding the stability of bacteriocins in the GI tract. It has been shown that bacteriocins can be degraded by proteolytic enzymes such as pepsin, trypsin and chymotrypsin in the stomach or intestine ([Fernandez et al., 2013]). […] However, in the current study, pediocin PA-1(M31L) and bactof ...

S. aureus ATCC 6538 = format: cell-based, Staphylococcus aureus; conditions: for Total activity: broth microdilution
Description: (§3) Microcin J25 was produced by Escherichia coli MC4100 carrying the plasmid PTUC 202 ([Solbiati et al., 1999]). For the antibacterial activity of pure compounds and digestion mixture, Listeria ivanovii HPB28 (Canada Health Protection Branch) was used as indicator strain for nisin and pediocin PA-1, while Staphylococcus aureus ATCC 6538 (ATCC) and Salmonella enterica subsp. enterica serovar Newport ATCC 6962 (later referred to as S. Newport, ATCC) were used as indicator strains for bactofencin A (M14L, M18L) and microcin J25, respectively. L. ivanovii HPB28 and S. aureus were cultured in Tryptic Soy (Difco Laboratories, Spark, MD, United States) supplemented with 0.6% yeast extract (TSBYE), at 30 and 37°C, respectively. S. Newport was cultured at 37°C overnight in Luria-Bertani (LB) (Difco Laboratories, Spark, MD, United States). All strains were maintained at –80°C as stock cultures in their corresponding culture media supplemented with 20% glycerol, and propagated twice at 24 h intervals before use.
(§4) Quantitative determination of inhibitory activity of bacteriocins was carried out using the broth microdilution method as described by [Ben Said et al. (2020)]. Two-fold serial dilutions of bacteriocins (125 μL) were prepared in an appropriate medium in a clear 96-well flat-bottom microtiter plate. Indicator strains were diluted to 10^5 CFU/mL, from which 50 μL were added to each well. The microtiter plates were incubated for 24 h under appropriate conditions, and optical densities were recorded at 595 nm (Infinite M200, Tecan, Switzerland). Control wells contained untreated culture and appropriate medium (blanks). The number of inhibition wells was noted and inhibition activities were calculated in μg/mL.

[2] = test system: human cells relevant to oral cavity; conditions: concentration up to 200 μg/mL; ref Shin et al. (2015); cited from earlier work
L. ivanovii HPB 28 = format: cell-based, Listeria ivanovii; conditions: broth microdilution
Description: as §3, §4

SV40 cells = conditions: 700 AU/mL (approximately 10–20 mg/mL), trypan blue, ref Murinda et al., 2003; cited from earlier work
Description: as §1

S. Newport ATCC 6962 = format: cell-based, Salmonella enterica subsp. enterica serovar Newport; conditions: for Total activity: broth microdilution
Description: as §3, §4

human red blood cells = conditions: 750 μM (2.5 mg/mL), ref Begde et al., 2011; cited from earlier work
Experimental: as §2

[3] = after oral conditions (SSF, 2 min, 37°C)
[4] = pure compound without GI digestion, 24 h, OD 595 nm
[5] = TIM-1 dynamic model, ref Kheadr et al., 2010

## nisin C [nisin C (Chrisin®)]
HepG2 cells
  Concentration reducing viability to 50%: 352 µg/mL
MCF-7 cells
  Concentration reducing viability to 50%: 352 µg/mL
Vero cells; ref Paiva et al., 2012
  Concentration reducing viability to 50%: 45.21 µg/mL
Sheep erythrocytes
  Hemolysis: 6.6%

## nisin A (I[Dhb]AI[Dha]LC[Abu]PGCK[Abu]GALMGCNMK[Abu]A[Abu]CHCSIHV[Dha]K; thioether (positions not given here); not fully specified (residues 7, 11, 19, 26, 28, bridges); UniProt P13068 24-57, looked up) [nisin A (Nutrition 21), commercial nisin A (Nutrition 21)]
Caco-2
  IC50: 385.7 µg/mL
HT29 (epithelial cells)
  IC50: 301.5 µg/mL

## nisin A (I[Dhb]AI[Dha]LC[Abu]PGCK[Abu]GALMGCNMK[Abu]A[Abu]CHCSIHV[Dha]K; thioether (positions not given here); not fully specified (residues 7, 11, 19, 26, 28, bridges); UniProt P13068 24-57, looked up) [nisin A (Nisaplin®), commercial nisin A product Nisaplin (Danisco)]
Vero cells; LDH cytotoxicity assay, ref Vaucher et al. (2010)
  EC50: 0.62 µg/mL

## KYYGNGVTCGKHSCSVDWGKATTCIINNGALAWATGGHQGNHKC-OH (disulfide 9-14, 24-44) [pediocin PA-1(M31L)]
Rat erythrocytes
  Concentration above which dose-dependent increase in percentage of hemolysis was shown: higher than 50 μg/mL

## CC[C@H](C)[C@H](NC(=O)CNC(=O)[C@@H](NC(=O)[C@H](Cc1ccccc1)NC(=O)[C@H](Cc1ccc(O)cc1)NC(=O)[C@@H]1CCC(=O)NCC(=O)NCC(=O)N[C@@H](C)C(=O)NCC(=O)N[C@@H](Cc2cnc[nH]2)C(=O)N[C@@H](C(C)C)C(=O)N2CCC[C@H]2C(=O)N1)C(C)C)C(=O)NCC(=O)N[C@H](C(=O)N1CCC[C@H]1C(=O)N[C@H](C(=O)N[C@@H](CO)C(=O)N[C@@H](Cc1ccccc1)C(=O)N[C@@H](Cc1ccc(O)cc1)C(=O)NCC(=O)O)[C@@H](C)CC)[C@@H](C)O [microcin J25] (GGAGHVPEYFVGIGTPISFYG-OH; lactam N-8)
[1]
  Degradation upon exposure to pancreatin (small intestine): only partially degraded
  Resistance to the proteolytic enzymes in the stomach: highly resistant

## CC(C)C[C@@H]1NC(=O)CNC(=O)[C@H]([C@@H](C)O)NC(=O)[C@@H]2CCCN2C(=O)[C@H](CC(C)C)NC(=O)CNC(=O)[C@H](CC(N)=O)NC(=O)[C@H](CC(N)=O)NC(=O)[C@H](Cc2ccc(O)cc2)NC(=O)[C@H](C(C)C)NC(=O)[C@H](CCCNC(=N)N)NC(=O)[C@@H](NC(=O)[C@H](CCCNC(=N)N)NC(=O)[C@H](Cc2c[nH]cn2)NC(=O)[C@H](CCCCN)NC(=O)[C@H](CCCCN)NC(=O)[C@H](CCCNC(=N)N)NC(=O)[C@@H](N)CCCCN)CSSC[C@@H](C(N)=O)NC(=O)[C@H](Cc2c[nH]c3ccccc23)NC(=O)[C@H](CCCNC(=N)N)NC(=O)[C@H](Cc2ccc(O)cc2)NC1=O [bactofencin A(M14L, M18L)] (H-KRKKHRCRVYNNGLPTGLYRWC-NH2; disulfide 7-22 (inferred); N-terminus and C-terminus assumed)
S. aureus ATCC 6538; ATCC 6538, 24 h
  MIC: 5 µg/mL (≈ 1.82 µM)
S. aureus ATCC 6538; [3]
  Total activity: 10.4 AU/mL
S. aureus ATCC 6538; [4]
  Total activity: 10.4 AU/mL

## nisin Z (I[Dhb]AI[Dha]LC[Abu]PGCK[Abu]GALMGCNMK[Abu]A[Abu]CNCSIHV[Dha]K; thioether (positions not given here); not fully specified (residues 7, 11, 19, 26, 28, bridges); UniProt P29559 24-57, looked up) [nisin Z (Handary, Brussels, Belgium), commercial nisin Z from Handary]
[2]
  Toxic effect: did not exert any toxic effect

## pediocin PA-1 (KYYGNGVTCGKHSCSVDWGKATTCIINNGAMAWATGGHQGNHKC; disulfide 9-14, 24-44; UniProt P29430 19-62, looked up) [wild-type bacteriocin naturally produced by Pediococcus acidilactici, literature data]
L. ivanovii HPB 28; [3]
  Total activity: 0.18 AU/mL
L. ivanovii HPB 28; [4]
  Total activity: 0.18 AU/mL
SV40 cells
  Cell viability reduced to: 36%
[1]; [5]
  Stability in the small intestine: completely degraded
  Stability in the stomach: stable

## CC[C@H](C)[C@H](NC(=O)CNC(=O)[C@@H](NC(=O)[C@H](Cc1ccccc1)NC(=O)[C@H](Cc1ccc(O)cc1)NC(=O)[C@@H]1CCC(=O)NCC(=O)NCC(=O)N[C@@H](C)C(=O)NCC(=O)N[C@@H](Cc2c[nH]cn2)C(=O)N[C@@H](C(C)C)C(=O)N2CCC[C@H]2C(=O)N1)C(C)C)C(=O)NCC(=O)N[C@H](C(=O)N1CCC[C@H]1C(=O)N[C@H](C(=O)N[C@@H](CO)C(=O)N[C@@H](Cc1ccccc1)C(=O)N[C@@H](Cc1ccc(O)cc1)C(=O)NCC(=O)O)[C@@H](C)CC)[C@@H](C)O [microcin J25] (GGAGHVPEYFVGIGTPISFYG-OH; lactam N-8 (inferred); C-terminus assumed)
S. Newport ATCC 6962; ATCC 6962, 24 h
  MIC: 0.0356 µg/mL (≈ 0.0169 µM)
S. Newport ATCC 6962; after gastric conditions (SGF, pepsin 2000 U/mL, lipase 60 U/mL, pH 3, 90 min, 37°C)
  Total activity: 0.0712 AU/mL
S. Newport ATCC 6962; [3]
  Total activity: 0.0712 AU/mL
S. Newport ATCC 6962; after small intestinal conditions (SIF, bile salt 10 mmol/L, pancreatin 100 U/mL, pH 7, 2 h, 37°C)
  Total activity: 0.356 AU/mL
S. Newport ATCC 6962; [4]
  Total activity: 0.0712 AU/mL

## nisin
Human red blood cells
  Relative hemolysis: 10%
